What was measured:
[1] = test system: isolated rat aorta specimen; test: Effect on KCl-induced contraction of the isolated rat aorta specimen; assay type: cell-based; conditions: papaverine (100 μM) = 100% relaxation
Protocol: Effect on KCl-induced contraction of the isolated rat aorta specimen
In the present experiment, potassium channel activating activity was evaluated by comparing the pIC50 values representing the relaxing effects of the test drug on the 20 mM KCl-induced contraction and 100 mM KCl-contraction. According to Br. J. Pharmacol., 88, 103-111 (1986) referred to above, potassium channel activators produce greater relaxing effects on 20 mM KCl-induced contraction than on 100 mM KCl-induced contraction.
Male 7-13-week-old SD rats (body weights 240-480 g) were used in groups of 4-6. After the animal was bled to death under ether anesthesia, the throacic aorta was isolated and dissected into a spiral specimen about 2 mm wide×about 20 mm long. Each specimen was suspended in a 10 ml Magnus bath containing Krebs-Henseleit solution (KH solution) aerated with 95% O2+5% CO2 at 37° C. A tension load of 1 g was applied and with the KH solution exchanged every 20 minutes, the specimen was equilibrated for about 90 minutes. Then, the experiment was commenced. The change in tension of the specimen was recorded on a recticorder through an isometric tension transducer. The specimen was caused to contract by replacing the KH solution in the Magnus bath with 20 mM or 100 mM KCl-containing KH solution (NaCl in KH solution was replaced with an equimolar amount of KCl) and when the contractile response had reached plateau, the test drug was cumulatively applied to evaluate the relaxing effect.
Each result was expressed in the average of the relaxation ratio obtained in the presence of the test drug, with the maximum relaxation found with papaverine (100 μM) being taken as the 100% relaxation response of the specimen.

[2] = test system: blood pressure in anesthetized rats; test: Effect on blood pressure in anesthetized rats; assay type: in vivo, rat; conditions: 100 mg/kg intraduodenally; urethane-anesthetized female SD rats; % change at time of maximal action, up to 3 hours
Protocol: Effect on blood pressure in anesthetized rats
Female 10-13-week-old SD rats (body weights 180-300 g) fasted from the previous day were used in groups of 2-4. The animal was placed in supine position under urethane anesthesia and the femoral artery was cannulated for blood pressure measurement. The blood pressure was recorded on a recorder through the cannula and a pressure transducer. When the blood pressure had stabilized, the test drug was administered intraduodenally and the effect on blood pressure was monitored up to 3 hours after administration.
Each value is expressed as the average of % changes at the time of maximal action.

[3] = test system: isolated guinea-pig trachea specimen; test: Effect on the KCl-induced contraction of the isolated guinea-pig trachea specimen; assay type: cell-based
Protocol: Effect on the KCl-induced contraction of the isolated guinea-pig trachea specimen
As in Experimental Example 1, potassium channel activating activity was evaluated by comparing the relaxing effects of the test drug on 20 mM KCl-induced contraction and 100 mM KCl-induced contraction.
Male 5-13-week-old Hartley guinea pigs (body weights 400-730 g) were used in groups of 2-4. After the animal was bled to death under ether anesthesia, the trachea was isolated and 4 tracheal strips were connected to prepare a specimen in accordance with the method of Takagi et al. (Chem. Pharm. Bull., 6, 716-720 (1958)). The experiment was performed in the same manner as described in Experimental Example 1.

Cc1c(-c2ccccc2F)[nH]c(N)c1C#N [Compound 1, 2-Amino-3-cyano-5-(2-fluorophenyl)-4-methylpyrrole]
Relaxation effect (%) 20 mM KCl-induced contraction ([1]; 10 μM): 82%
Relaxation effect (%) 100 mM KCl-induced contraction ([1]; 10 μM): 28%

Cc1c(-c2ccccc2)[nH]c(N)c1C#N [Compound 2, 2-Amino-3-cyano-4-methyl-5-phenylpyrrole]
Relaxation effect (%) 20 mM KCl-induced contraction ([1]; 10 μM): 78%
Relaxation effect (%) 100 mM KCl-induced contraction ([1]; 10 μM): 17%
Hypotensive effect (%) [2]: 25.9%

Cc1c(-c2cccc(Cl)c2)[nH]c(N)c1C#N [Compound 3, 2-Amino-5-(3-chlorophenyl)-3-cyano-4-methylpyrrole]
Relaxation effect (%) 20 mM KCl-induced contraction ([1]; 1 μM): 45%
Relaxation effect (%) 100 mM KCl-induced contraction ([1]; 1 μM): 6%
Hypotensive effect (%) [2]: 14.1%

Cc1c(-c2ccco2)[nH]c(N)c1C#N [Compound 4, 2-Amino-3-cyano-5-(2-furyl)-4-methylpyrrole]
Relaxation effect (%) 20 mM KCl-induced contraction ([1]; 10 μM): 64%
Relaxation effect (%) 100 mM KCl-induced contraction ([1]; 10 μM): 12%
Hypotensive effect (%) [2]: 25.6%

N#Cc1cc(-c2ccc3c(c2)OCO3)[nH]c1N [Compound 5, 2-Amino-3-cyano-5-(3,4-methylenedioxyphenyl)pyrrole]
Relaxation effect (%) 20 mM KCl-induced contraction ([1]; 10 μM): 73%
Relaxation effect (%) 100 mM KCl-induced contraction ([1]; 10 μM): 18%
Relaxation effect (%) 20 mM KCl-induced contraction ([3]; 10 μM): 58%
Relaxation effect (%) 100 mM KCl-induced contraction ([3]; 10 μM): −7%

N#Cc1cc(-c2ccc(F)cc2F)[nH]c1N [Compound 6, 2-Amino-3-cyano-5-(2,4-difluorophenyl)pyrrole]
Relaxation effect (%) 20 mM KCl-induced contraction ([1]; 10 μM): 92%
Relaxation effect (%) 100 mM KCl-induced contraction ([1]; 10 μM): 24%

Cc1[nH]c(-c2cccc(Cl)c2)cc1C#N [Compound 7, 5-(3-Chlorophenyl)-3-cyano-2-methylpyrrole]
Relaxation effect (%) 20 mM KCl-induced contraction ([3]; 3 μM): 64%
Relaxation effect (%) 100 mM KCl-induced contraction ([3]; 3 μM): 31%

Cc1c(-c2cccc([N+](=O)[O-])c2)[nH]c(N)c1C#N [Compound 8, 2-Amino-3-cyano-4-methyl-5-(3-nitrophenyl)pyrrole]
Relaxation effect (%) 20 mM KCl-induced contraction ([3]; 3 μM): 58%
Relaxation effect (%) 100 mM KCl-induced contraction ([3]; 3 μM): −2%

Cc1[nH]c(-c2ccccc2)c(C)c1C#N [Compound 9, 3-Cyano-2,4-dimethyl-5-phenylpyrrole]
Relaxation effect (%) 20 mM KCl-induced contraction ([3]; 10 μM): 79%
Relaxation effect (%) 100 mM KCl-induced contraction ([3]; 10 μM): 39%

CCOc1cccc(-c2cc(C#N)c(N3CCCC3)[nH]2)c1 [Compound 10, 3-Cyano-5-(3-ethoxyphenyl)-2-pyrrolidinopyrrole]
Relaxation effect (%) 20 mM KCl-induced contraction ([3]; 3 μM): 37%
Relaxation effect (%) 100 mM KCl-induced contraction ([3]; 3 μM): −15%

N#Cc1cc(-c2ccc3c(c2)OCO3)[nH]c1N1CCCC1 [Compound 11, 3-Cyano-5-(3,4-methylenedioxyphenyl)-2-pyrrolidinopyrrole]
Relaxation effect (%) 20 mM KCl-induced contraction ([3]; 10 μM): 37%
Relaxation effect (%) 100 mM KCl-induced contraction ([3]; 10 μM): 4%

From patent US6353016B1, “Potassium channel activators” (Nippon Shinyaku Co., Ltd., priority 1998, dated 2002)
